Results on 2 compounds are retold here after PMC10175687 (Frontiers in Pharmacology, 2023).

Where two headings read alike, the source gives them in different places.

On the set-up of data set [1]: method as in 2 sources, one per row (each row's own in cited_ref): ref Rowland, 1990; Rybak, 2006; Cavalcanti et al., 2010 ||| ref EMA., 2022. The note with it: cited from earlier work; for half-life: ref Rowland, 1990, Rybak, 2006, Cavalcanti et al., 2010.
On the set-up of data set [2]: method as in Rowland, 1990; Rybak, 2006; Cavalcanti et al., 2010. The note with it: ref Rowland, 1990, Rybak, 2006, Cavalcanti et al., 2010, cited from earlier work.
Details of data set [3]: species or system human. The note with it: in vivo. On the procedure: This was a prospective, open-label PPK study conducted in the ICU department of Peking University First Hospital. […] Pregnant and lactating patients, patients with special sites (endocardium, bone, joints, etc.) infections, or those who received any special treatment that may affect drug elimination, such as renal replacement therapy, were excluded.
The infusion duration was 30–60 min. […] Additionally, in 1/3 patients, 2 mL more blood sample was collected immediately after the 5th infusion; in the other 1/3 patients, 2 mL more blood sample was collected 1 h after the 5th dose, and in the remaining 1/3 patients, 2 mL more concentration sample was taken 1 h before the 6th dose. All blood samples were collected in blood collection tubes anticoagulated by ethylene diamine tetra acetic acid (EDTA) for concentration determination.
Blood samples were centrifuged within 12 h to obtain plasma. Then, 0.4 mL plasma samples were added with 0.05 mL internal standard solution (piperacillin sodium 0.15 mg/mL). Consequently, 0.6 mL acetonitrile was added, and the sample was vigorously shaken for 1 min and centrifuged at 12,000 r/min for 5 min. Then, 0.9 mL of the supernatant was transferred to a centrifuge tube, and 0.4 mL of dichloromethane was added. The solution was vigorously shaken for 1 min and centrifuged at 12,000 r/min for 5 min. The supernatant was then transferred into a vial for detection. HPLC detection conditions were as follows: Waters Symmetry C18 column (250 × 4.6 mm, 5 μm); mobile phase: 0.01 mol/L NaH2PO4 (pH = 3.3)-acetonitrile (75:25), isocratic elution; detection wavelength: 240 nm; flow rate: 1.0 mL/min; injection volume: 0.020 mL; column temperature: 35 °C ([Dong et al., 2011]). […] The above analytical method has passed the methodological verification. […] In terms of sensitivity, the signal-to-noise ratio (S/N) of the LOQ was >10. The relative standard deviations (RSDs) of the intra-day and inter-day precision of simulated plasma samples with high, medium and low concentrations were all less than 10%, and the intra-day and inter-day accuracies were 91.01%–101.13% and 92.98%–98.99%, respectively. […] The stability of simulated plasma samples with high, medium and low concentrations was good after being placed at room temperature for 4 h, frozen and thawed 3 times and stored at −80°C for 60 days, respectively, with the RSDs of tested samples all less than 10%.
The model was established in a stepwise manner. In the basic model screening process, one-, two- and three-compartment models with additive, proportional and mixed error were tested respectively, and the basic model was selected by the objective function value (OFV) and visual diagnostic plots ([Gao et al., 2020]). The model parameters were assumed to follow a log-normal distribution, and the inter-individual variability for each structural parameter was modeled using the following equation: Pi=PTV×Exp ηi (1) where P i represents parameters for the i th individual, P TV are the typical values of the parameters, and η i are random variables with zero mean and variance of ω^2.
Demographic and clinical characteristics that were considered plausible for affecting teicoplanin PK were tested as covariates, including sex, age, height, weight, BMI, ALT, AST, TBIL, DBIL, TP, ALB, WBC, Scr, GFR, and BUN. Individual PK estimates obtained from the selected structural model were firstly plotted against covariate values to assess relationships ([Byrne et al., 2017]). When a relationship between the covariate and the PK parameter was observed, the covariate was tested for inclusion into the PPK model. […]

Take `CN[C@H](CC(C)C)C(=O)N[C@H]1C(=O)N[C@@H](CC(N)=O)C(=O)N[C@H]2C(=O)N[C@H]3C(=O)N[C@H](C(=O)N[C@H](C(=O)O)c4cc(O)cc(O)c4-c4cc3ccc4O)[C@H](O)c3ccc(c(Cl)c3)Oc3cc2cc(c3O[C@@H]2O[C@H](CO)[C@@H](O)[C@H](O)[C@H]2O[C@H]2C[C@](C)(N)[C@H](O)[C@H](C)O2)Oc2ccc(cc2Cl)[C@H]1O` [vancomycin]: the half-life (commonly the time in which the quantity being followed falls by half) in data set [1] (vancomycin, adults with normal renal function) was 6 to 12 h. For the same compound, the “plasma protein binding rate” value in data set [2] (vancomycin) is recorded as 30%–55%.
Regarding teicoplanin, in data set [3], the “Q, Estimate (RSE%)” value is given as 3.12 (10.9) L/h; the “Q, bootstrap median (95% PI)” value is 3.14 (2.62–3.90) L/h; the “V1, Estimate (RSE%)” value is 20.1 (12.9) L; the “V1, bootstrap median (95% PI)” value is given as 19.8 (16.1–26.2) L. Further, in data set [3], the “V2, Estimate (RSE%)” value is 101 (12.7) L; the “V2, bootstrap median (95% PI)” value is 98.2 (77.5–122.2) L; the “θCL_GFR, Estimate (RSE%)” value is given as 0.437 (23.8); the “θCL_GFR, bootstrap median (95% PI)” value was 0.441 (0.234–0.740). Further, the “CL, Estimate (RSE%)” value in data set [3] (iv) was 1.03 (16.6) L/h. Also, in data set [1] (ref EMA., 2022), the renal clearance is 0.13 to 0.2 mL/min/kg and the total clearance was 0.167 to 0.233 mL/min/kg. Also, the half-life in data set [1] (teicoplanin) was 100 to 170 h. In addition, the “dose administered recovered in feces (via bile excretion)” value in data set [1] (within 8 days after administration, ref EMA., 2022) was 2.7%. In addition, the “unchanged teicoplanin excreted by the urinary route” value in data set [1] (within 16 days, ref EMA., 2022) was 80%. Moreover, the “plasma protein binding rate” value in data set [2] (teicoplanin) is listed as “about 90%”.
